Measured values from patent US6107316A, “Method for treating protozoal infections” (priority 1998, dated 2000).
In brackets after ≈: the same amount, converted by molar mass. Where two headings read alike, the source gives them in different places.

Legend:
[1] = tested on: Giardia lamblia; assay: in vitro growth inhibitory activity against Giardia lamblia; assay type: cell-based; conditions: Giardia duodenalis; concentration required to inhibit growth by 50%
Description: 35, pp. 2198-2202 (1991). EC50 values for test compounds, expressed in parts per million (ppm), were calculated from dose response curves and are presented in Table 4. As used herein, the terminology "EC50" means the concentration of test compound required to inhibit growth by 50% are compared to a control lacking the test compound. Metronidazole was included as a standard in the tests for comparative purposes.

[2] = tested on: Leishmania major; assay: in vitro growth inhibitory activity against L. major promastigotes; assay type: cell-based
Text: 35, pp. 2198-2202 (1991).

[3] = tested on: Entamoeba histolytica; assay: in vitro growth inhibitory activity against E. histolytica; assay type: cell-based
Text: 35, pp. 2198-2202 (1991). Metronidazole was included as a standard in the test for comparative purposes.

[4] = tested on: Tetrahymena pyriformis; assay: in vitro growth inhibitory activity against the ciliate Tetrahymena pyriformis; assay type: cell-based, Tetrahymena pyriformis (ATCC strain 30005); conditions: read-out: EC50 Tetrahymena pyriformis
Description: Compounds were evaluated for in vitro growth inhibitory activity against the ciliate Tetrahymena pyriformis, which was used as an indicator organism for the Apicomplexia since by several criteria the ciliates and Apicomplexa are closely related (Edlind T. D. et al., Mol. Phylogenet. Evol. vol. 5, pp. 359-367, 1996). T. pyriformis (ATCC strain 30005) was grown in 1 ml ATCC medium 357 at 25° C. in 4 ml polyallomer culture tubes without shaking. Compounds were dissolved in dimethylsufoxide (DMSO) and added to the cultures (containing 3,000 cells/ml) such that the final DMSO concentration was 0.1-0.3%. […] Parasitol. vol. 84, pp. 355-370, 1996) and Cryptosporidium parvum (Arrowood et al., FEMS Microbial. Lett., vol. 136, pp. 245-249, 1996) were tested for comparison.

[5] = tested on: Encephalitozoon (Septata) intestinalis; assay: growth inhibitory activity against E. intestinalis grown on Vero cells (spore count); assay type: cell-based; conditions: 336 h, 0.1 μg/ml, spore number after 2 weeks, read-out: Growth (% of control)
Description: Compounds 2, 10 and 15 were tested for i,7 vitro growth inhibitory activity against E. intestinalis, grown on African green monkey kidney cells (Vero cells). Vero cells were grown in 25-cm^2 culture flasks at 37° C. in a humidified 5% carbon dioxide incubator. Cultures were maintained in minimal essential medium (Gibco BRL, Gaithersburg, Md., U.S.A.), supplemented with L-glutamine, Earle's salts, 5% heat-inactivated foetal calf serum (Hyclone Labs, Inc., U.S.A.), fungizone (2 μg/ml, Gibco BRL) and gentamicin (50 μg/ml, Gibco BRL). E. intestinalis spores were collected from the supernatant of an infected Vero cell culture and were used to infect normal cells to produce a fresh spore preparation for growth inhibition tests.
Growth inhibition tests were performed in 24-well culture plates. One ml of Vero cells (5×10^4 cells per ml) was placed in each well and the cells incubated for 12-15 hours at 37° C. The supernatant medium was then removed and replaced with 1 ml of medium containing 1.5-2.0×10^4 E. intestinalis spores per ml along with 1 μl of test compound dissolved in dimethylsulfoxide (DMSO) or DMSO alone for the control treatments without test compound. The plates were incubated at 37° C. and the medium was changed every 72 h along with fresh test compound in DMSO or DMSO alone (controls). After 2 weeks the supernatant was transferred from each well to a microcentiifuge tube, then concentrated by centrifugation with resuspension of the resulting E. intestinalis spore pellet in 300-500 μl fresh medium. The spore number in each sample was then determined by counting in a hemocytometer. The results in Table 11 show the effects of the test compounds on the number of spores and are expressed as a percentage of the spore number in the control treatment without test compound.

[6] = tested on: Toxoplasma gondii; conditions: Stokkermans et al., 1996; cited from earlier work
[7] = tested on: Cryptosporidium parvum; conditions: Arrowood et al., 1996; cited from earlier work

Row | SMILES | EC50 [1] [µg/mL] | EC50 [2] [µg/mL] | EC50 [3] [µg/mL] | EC50 ([4]; 24 hours, 25° C.) [µg/mL] | activity at 0.1 µg/mL [5] [%] | EC50 ([4]; 24 h) [µg/mL] | in vitro activity against Toxoplasma gondii [6] | in vitro activity against Cryptosporidium parvum [7]
1 | CCC(C)(NC(=O)c1cc(Cl)cc(C=NOC)c1)C(=O)CCl (stereo not shown) [Compound 2] | 0.03 (≈ 0.0869 µM) | 0.03 (≈ 0.0869 µM) | 12 (≈ 34.8 µM) | < 0.01 | 29 |  |  | 
2 | CCC(C)(NC(=O)c1cc(C)cc(Br)c1)C(=O)CCl (stereo not shown) [Compound 3] | 0.06 (≈ 0.173 µM) | 0.2 (≈ 0.577 µM) | 16 (≈ 46.2 µM) | < 0.01 |  |  |  | 
3 | CCC(C)(NC(=O)c1cncc(Br)c1)C(=O)CCl (stereo not shown) [Compound 15] | 0.2 (≈ 0.599 µM) | 0.7 (≈ 2.1 µM) | 20 (≈ 59.9 µM) | < 0.01 | 13 |  |  | 
4 | Cc1ncc([N+](=O)[O-])n1CCO [Metronidazole, reference compound] | 0.7 (≈ 4.09 µM) |  | 0.5 (≈ 2.92 µM) |  |  |  |  | 
5 | CCC(CC)Nc1c([N+](=O)[O-])cc(C)c(C)c1[N+](=O)[O-] [pendimethalin] |  |  |  |  |  | 2 (≈ 7.11 µM) | have in vitro activity | have in vitro activity
6 | CCCN(CCC)c1c([N+](=O)[O-])cc(C(F)(F)F)cc1[N+](=O)[O-] [trifluralin] |  |  |  | > 6 |  |  | have in vitro activity | have in vitro activity
